Laboratory results reported in patent US8883776B2, “Cycloalkyloxy- and heterocycloalkyloxypyridine compounds as modulators of the histamine H3 receptor” (Janssen Pharmaceutica N.V., priority 2007, dated 2014).
pKi: −log10 of the molar value. Counter-ions that a name gives are not always drawn.

Tests used:
[1] = molecular target: T1, cloned human H3 receptors (Homo sapiens, UniProt Q9Y5N1); experiment: H3 Receptor Binding (Human); conditions: cloned human H3 receptors stably expressed in SK-N-MC cells; average of results
T1 construct: expressed in transfected cells
Description: H3 Receptor Binding (Human)
Binding of compounds to the cloned human H3 receptors, stably expressed in SK-N-MC cells, was performed as described by Barbier, A. J. et al. (Br. J. Pharmacol. 2004, 143(5), 649-661).

human H3 receptor = human H3 receptor (Homo sapiens, UniProt Q9Y5N1); experiment: Cyclic AMP Accumulation, SK-N-MC cells expressing reporter construct and human H3 receptor; type: cell-based; conditions: cAMP accumulation, average of results, read-out: Human pA2 (converted)
Source text: (§1) Sublines of SK-N-MC cells were created that expressed a reporter construct and either the human or rat H3 receptor. The pA2 values were obtained as described by Barbier et al. (2004).

rat H3 receptor [2] = molecular target: T2, rat H3 receptor (Rattus norvegicus, UniProt Q9QYN8); experiment: Cyclic AMP Accumulation, SK-N-MC cells expressing reporter construct and rat H3 receptor; type: cell-based; set-up: expressed in transfected cells; host or cells: SK-N-MC sublines with reporter construct; conditions: cAMP accumulation, average of results, read-out: Rat pA2 (converted)
Source text: as §1

rat H3 receptor [3] = molecular target: T2, rat H3 receptor; experiment: H3 Receptor Binding (Rat), rat brain membranes, N-[3H]-α-methylhistamine; conditions: rat brain without cerebellum membranes; 0.8 nM N-[3H]-α-methylhistamine; average of results
Description: H3 Receptor Binding (Rat)
A rat brain without cerebellum (Zivic Laboratories Inc., Pittsburgh, Pa.) was homogenized in 50 mM Tris-HCl/5 mM EDTA and centrifuged at 1,000 rpm for 5 min. The supernatant was removed and recentrifuged at 15,000 rpm for 30 min. Pellets were rehomogenized in 50 mM Tris/5 mM EDTA (pH 7.4). Membranes were incubated with 0.8 nM N—[^3H]-α-methylhistamine plus/minus test compounds for 60 min at 25° C. and harvested by rapid filtration over GF/C glass fiber filters (pretreated with 0.3% polyethylenimine) followed by four washes with buffer. Nonspecific binding was defined in the presence of 100 μM histamine. Inhibitory concentration (responsible for 50% inhibition of maximal effect, IC50) values were determined by a single site curve-fitting program (GraphPad, San Diego, Calif.) and converted to Ki values based on a N—[^3H]-α-methylhistamine dissociation constant (Kd) of 0.8 nM.

T2 sequence (Q9QYN8 whole entry): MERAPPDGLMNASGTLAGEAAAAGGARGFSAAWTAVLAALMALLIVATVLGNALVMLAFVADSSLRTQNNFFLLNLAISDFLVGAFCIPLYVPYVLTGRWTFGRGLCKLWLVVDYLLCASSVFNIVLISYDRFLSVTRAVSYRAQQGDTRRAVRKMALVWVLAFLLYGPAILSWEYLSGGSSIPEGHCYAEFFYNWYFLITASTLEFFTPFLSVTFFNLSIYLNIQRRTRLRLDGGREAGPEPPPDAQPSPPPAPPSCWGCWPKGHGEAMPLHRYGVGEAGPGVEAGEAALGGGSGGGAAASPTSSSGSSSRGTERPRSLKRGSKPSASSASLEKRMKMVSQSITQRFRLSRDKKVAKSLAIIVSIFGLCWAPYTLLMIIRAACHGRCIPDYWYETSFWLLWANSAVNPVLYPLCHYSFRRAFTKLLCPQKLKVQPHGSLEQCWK
Sequence of human H3 receptor (Q9Y5N1 whole entry): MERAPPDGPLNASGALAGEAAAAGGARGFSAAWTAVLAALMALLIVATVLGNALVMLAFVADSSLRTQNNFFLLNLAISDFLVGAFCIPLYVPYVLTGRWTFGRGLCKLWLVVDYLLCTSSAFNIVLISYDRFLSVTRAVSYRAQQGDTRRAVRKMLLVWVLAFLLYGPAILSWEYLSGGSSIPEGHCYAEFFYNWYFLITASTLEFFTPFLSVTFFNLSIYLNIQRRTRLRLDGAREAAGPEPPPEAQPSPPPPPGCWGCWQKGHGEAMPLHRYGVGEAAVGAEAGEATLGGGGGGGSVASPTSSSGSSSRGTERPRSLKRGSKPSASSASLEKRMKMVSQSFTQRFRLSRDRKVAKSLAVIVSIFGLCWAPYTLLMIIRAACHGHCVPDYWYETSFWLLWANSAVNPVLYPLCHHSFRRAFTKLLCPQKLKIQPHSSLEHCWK
T1 sequence (Q9Y5N1 whole entry): as above

## CC(C)N1CCN(C(=O)c2ccc(OC3CCOC3)nc2)CC1 (stereo not drawn) [Example 1, (4-isopropyl-piperazin-1-yl)-[6-(tetrahydro-furan-3-yloxy)-pyridin-3-yl]-methanone hydrochloride salt]
[1]
  pKi: 6.98

## O=C(c1ccc(OC2CCCCC2)nc1)N1CCCN(C2CCC2)CC1 [Example 8, (4-Cyclobutyl-[1,4]diazepan-1-yl)-(6-cyclohexyloxy-pyridin-3-yl)-methanone]
Human H3 receptor
  Kb: 1.05 nM
Rat H3 receptor [2]
  Kb: 9.77 nM
Rat H3 receptor [3]
  pKi: 7.77
[1]
  pKi: 9.10

## N#Cc1nc(C(=O)N2CCCN(C3CC3)CC2)ccc1OC1CCCCC1 [Example 12, 3-Cyclohexyloxy-6-(4-cyclopropyl-[1,4]diazepane-1-carbonyl)-pyridine-2-carbonitrile]
[1]
  pKi: 8.66

## O=C(c1ccc(OC2CCOCC2)nc1)N1CCCN(C2CCC2)CC1 [Example 9, (4-Cyclobutyl-[1,4]diazepan-1-yl)-[6-(tetrahydro-pyran-4-yloxy)-pyridin-3-yl]-methanone]
Human H3 receptor
  Kb: 0.234 nM
Rat H3 receptor [2]
  Kb: 4.37 nM
Rat H3 receptor [3]
  pKi: 7.55
[1]
  pKi: 9.05

## CC(C)N1CCCN(C(=O)c2ccc(OC3CCOC3)nc2)CC1 (stereo not drawn) [Example 2, (4-Isopropyl-[1,4]diazepan-1-yl)-[6-(tetrahydro-furan-3-yloxy)-pyridin-3-yl]-methanone hydrochloride salt]
[1]
  pKi: 8.05

## CC(C)N1CCCN(C(=O)c2ccc(OCC3(C)COC3)nc2)CC1 [Example 6, (4-Isopropyl-[1,4]diazepan-1-yl)-[6-(3-methyl-oxetan-3-ylmethoxy)-pyridin-3-yl]-methanone hydrochloride salt]
[1]
  pKi: 7.43

## N#Cc1nc(C(=O)N2CCCN(C3CC3)CC2)ccc1OC1CCOC1 (stereo not drawn) [Example 10, 6-(4-Cyclopropyl-[1,4]diazepane-1-carbonyl)-3-(tetrahydro-furan-3-yloxy)-pyridine-2-carbonitrile]
[1]
  pKi: 7.68

## N#Cc1nc(C(=O)N2CCCN(C3CC3)CC2)ccc1OC1CCCC1 [Example 11, 3-Cyclopentyloxy-6-(4-cyclopropyl-[1,4]diazepane-1-carbonyl)-pyridine-2-carbonitrile]
[1]
  pKi: 8.22

## O=C(c1ccc(OC2CCCC2)nc1)N1CCCN(C2CCC2)CC1 [Example 7, (4-Cyclobutyl-[1,4]diazepan-1-yl)-(6-cyclopentyloxy-pyridin-3-yl)-methanone]
Human H3 receptor
  Kb: 0.49 nM
Rat H3 receptor [2]
  Kb: 4.79 nM
Rat H3 receptor [3]
  pKi: 7.36
[1]
  pKi: 8.96

## CC(C)N1CCN(C(=O)c2ccc(OCC3(C)COC3)nc2)CC1 [Example 5, (4-isopropyl-piperazin-1-yl)-[6-(3-methyl-oxetan-3-ylmethoxy)-pyridin-3-yl]-methanone hydrochloride salt]
[1]
  pKi: 5.30

## O=C(c1ccc(OC2CCOC2)nc1)N1CCCN(C2CCC2)CC1 (stereo not drawn) [Example 4, (4-Cyclobutyl-[1,4]diazepan-1-yl)-[6-(tetrahydro-furan-3-yloxy)-pyridin-3-yl]-methanone]
Human H3 receptor
  Kb: 0.331 nM
Rat H3 receptor [2]
  Kb: 14.5 nM
Rat H3 receptor [3]
  pKi: 7.24
[1]
  pKi: 8.89

## O=C(c1ccc(OC2CCOC2)nc1)N1CCCN(C2CC2)CC1 (stereo not drawn) [Example 3, (4-Cyclopropyl-[1,4]diazepan-1-yl)-[6-(tetrahydro-furan-3-yloxy)-pyridin-3-yl]-methanone]
[1]
  pKi: 8.17
